Assays:
[1] = biological target: histamine receptor H1 (Homo sapiens, UniProt P35367); experiment: Histamine H1 radioligand binding ([3H]Pyrilamine); settings: for inhibition at 1 µM: read-out: Histamine Binding (1 μM) H1, percent inhibition of specific binding, 1 μM
Method in brief: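 Values are percent inhibition of specific [3H]pyrilamine (1.2 nM) binding with compounds at ≤1 μM (1% DMSO vehicle); 180 min incubation at 25 °C, pH 7.4 Tris buffer, on CHO-expressed human H1 receptor; 1 μM pyrilamine defined nonspecific binding, bound ligand counted after filtration.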

[2] = biological target: T1, human recombinant adrenergic α2A receptor (Homo sapiens, UniProt P08913); experiment: Adrenergic α2A radioligand binding ([3H]MK-912); settings: percent inhibition of specific binding, compound at 1 μM; for inhibition at 1 µM: read-out: Inhibition of ligand binding, Adrenergic α2A
T1 construct: expressed in transfected cells; host or cells: insect Sf9 cells
T1 sequence (P08913 1-465): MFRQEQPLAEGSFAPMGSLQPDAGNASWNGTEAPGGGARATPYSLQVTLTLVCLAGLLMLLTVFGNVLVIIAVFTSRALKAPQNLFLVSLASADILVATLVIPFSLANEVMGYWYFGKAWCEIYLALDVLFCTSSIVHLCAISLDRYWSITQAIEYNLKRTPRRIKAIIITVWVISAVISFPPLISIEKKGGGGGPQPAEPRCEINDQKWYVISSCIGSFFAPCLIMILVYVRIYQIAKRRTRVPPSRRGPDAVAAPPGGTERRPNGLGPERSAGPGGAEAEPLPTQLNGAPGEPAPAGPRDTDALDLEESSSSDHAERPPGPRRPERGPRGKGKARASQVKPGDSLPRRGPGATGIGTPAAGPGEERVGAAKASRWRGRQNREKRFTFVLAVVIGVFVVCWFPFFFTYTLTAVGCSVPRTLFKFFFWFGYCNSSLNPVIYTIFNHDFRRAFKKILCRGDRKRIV
Method: To evaluate in radioligand binding assays the activity of compounds of the invention, human recombinant adrenergic α2A receptor expressed in insect Sf9 cells (Uhlen S et al. J Pharmacol Exp Ther. 271:1558, 1994) in a modified Tris-HCl buffer (50 mM Tris-HCl, pH 7.4, 12.5 mM MgCl2, 2 mM EDTA) was used. Compounds of invention were incubated with 1 nM [^3H]MK-912 for 60 min. at 25° C. MK912 is (2S-trans)-1,3,4,5′,6,6′,7,12b-octahydro-1′,3′-dimethyl-spiro[2H-benzofuro[2,3-a]quinolizine-2,4′(1′H)-pyrimidin]-2′(3′H)-one hydrochloride Non-specific binding was estimated in the presence of 10 μM WB-4101 (2-(2,6-Dimethoxyphenoxyethyl)aminomethyl-1,4-benzodioxane hydrochloride). Receptor proteins were filtered and washed, the filters were then counted to determine [^3H]MK-912 specifically bound. Compounds were screened at 1 μM or lower, using 1% DMSO as vehicle. Biochemical assay results are presented as the percent inhibition of specific binding in Table 9.

[3] = biological target: T2, human recombinant serotonin (5-Hydroxytryptamine) 5-HT2C receptor (Homo sapiens, UniProt P28335); experiment: Serotonin 5-HT2C radioligand binding ([3H]Mesulergine); settings: for inhibition at 0.1 µM: compound at 0.1 μM; for inhibition at 0.1 µM / inhibition at 1 µM: read-out: Inhibition of ligand binding, Serotonin 5-HT2C (percent inhibition of specific binding)
T2 construct: expressed in transfected cells; host or cells: Chinese hamster ovary (CHO-K1) cells
T2 sequence (P28335 33-458): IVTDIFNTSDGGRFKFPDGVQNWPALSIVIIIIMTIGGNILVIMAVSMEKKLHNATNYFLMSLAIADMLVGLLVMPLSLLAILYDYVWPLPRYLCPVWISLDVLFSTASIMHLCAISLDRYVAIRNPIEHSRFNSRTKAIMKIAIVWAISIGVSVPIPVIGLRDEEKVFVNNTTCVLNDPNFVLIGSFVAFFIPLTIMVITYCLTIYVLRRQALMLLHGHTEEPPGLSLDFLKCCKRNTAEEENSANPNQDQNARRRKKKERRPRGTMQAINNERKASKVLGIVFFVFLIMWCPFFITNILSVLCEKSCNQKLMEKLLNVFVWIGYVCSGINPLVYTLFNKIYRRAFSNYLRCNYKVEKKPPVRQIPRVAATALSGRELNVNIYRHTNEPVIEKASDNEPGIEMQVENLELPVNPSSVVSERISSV
Method in brief: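 Compounds tested at 1 μM or lower (1% DMSO vehicle) for displacement of 1 nM [3H]Mesulergine over 60 min at 25° C. Specific binding determined by filtration counting, with 1 μM Mianserin defining non-specific binding; values are percent inhibition.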

Sequence of histamine receptor H1 (P35367 whole entry): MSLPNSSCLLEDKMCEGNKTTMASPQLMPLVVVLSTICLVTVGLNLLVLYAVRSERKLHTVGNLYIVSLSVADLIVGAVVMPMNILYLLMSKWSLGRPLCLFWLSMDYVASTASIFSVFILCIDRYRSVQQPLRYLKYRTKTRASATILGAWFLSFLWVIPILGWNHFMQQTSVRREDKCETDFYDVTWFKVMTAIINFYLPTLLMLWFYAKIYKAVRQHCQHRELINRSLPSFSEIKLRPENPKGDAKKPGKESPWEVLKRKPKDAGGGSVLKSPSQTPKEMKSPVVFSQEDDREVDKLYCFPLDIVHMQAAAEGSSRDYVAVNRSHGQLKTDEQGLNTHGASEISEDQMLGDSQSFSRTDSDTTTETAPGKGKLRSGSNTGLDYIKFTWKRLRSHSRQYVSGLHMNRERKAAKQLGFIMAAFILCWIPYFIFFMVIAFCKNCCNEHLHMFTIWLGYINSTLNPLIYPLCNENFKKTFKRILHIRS

Structure (SMILES)	inhibition at 1 µM [1]	inhibition at 1 µM [2]	inhibition at 0.1 µM [3]	inhibition at 1 µM ([3]; compound at 1 μM)	Histamine Binding (1 μM) H1, percent inhibition of specific binding [1]	Inhibition of ligand binding, Adrenergic α2A ([2]; 1 µM)	Inhibition of ligand binding, Serotonin 5-HT2C (percent inhibition of specific binding) ([3]; compound at 1 μM, 1 µM)
COc1ccc(C(C)(O)Cn2c3c(c4cc(C)ccc42)CN(C)CC3)cc1 (centres unmarked) [Compound 174, 1-(2,8-dimethyl-3,4-dihydro-1H-pyrido[4,3-b]indol-5(2H)-yl)-2-(4-methoxyphenyl)propan-2-ol]	34%	93%	96%	95%			
CCC(O)(Cn1c2c(c3cc(C)ccc31)CN(C)CC2)c1ccc(F)cc1 (centres unmarked) [Compound 175, 1-(2,8-dimethyl-3,4-dihydro-1H-pyrido[4,3-b]indol-5(2H)-yl)-2-(4-fluorophenyl)butan-2-ol]	71%	94%		95%			
CN1CCc2c(c3cc(Cl)ccc3n2CC(O)(c2ccc(F)cc2)C2CCC2)C1 (centres unmarked) [Compound 177, 2-(8-chloro-2-methyl-3,4-dihydro-1H-pyrido[4,3-b]indol-5(2H)-yl)-1-cyclobutyl-1-(4-fluorophenyl)ethanol]	83%	96%		95%			
CCCCC(O)(Cn1c2c(c3cc(Cl)ccc31)CN(C)CC2)c1ccc(F)cc1 (centres unmarked) [Compound 178, 1-(8-chloro-2-methyl-3,4-dihydro-1H-pyrido[4,3-b]indol-5(2H)-yl)-2-(4-fluorophenyl)hexan-2-ol]	30%	88%		95%			
Cc1ccc2c(c1)c1c(n2CC(O)c2ccncc2)CCN(C)C1 (centres unmarked) [Compound 180, 2-(2,8-dimethyl-3,4-dihydro-1H-pyrido[4,3-b]indol-5(2H)-yl)-1-(pyridin-4-yl)ethanol]	84%	84%		74%			
Cc1ccc2c(c1)c1c(n2/C=C/c2ccccc2)CCN(C)C1 [Compound 202, (E)-2,8-dimethyl-5-styryl-2,3,4,5-tetrahydro-1H-pyrido[4,3-b]indole]	100%	98%		101%			
CN1CCc2c(c3cc(Cl)ccc3n2/C=C(\c2ccc(F)cc2)C2CC2)C1 [Compound 203, (Z)-8-chloro-5-(2-cyclopropyl-2-(4-fluorophenyl)vinyl)-2-methyl-2,3,4,5-tetrahydro-1H-pyrido[4,3-b]indole]	64%	100%	101%	98%	72%		
C/C=C/C(=C\n1c2c(c3cc(Cl)ccc31)CN(C)CC2)c1ccc(F)cc1 [Compound 204, 8-chloro-5-((1E,3E)-2-(4-fluorophenyl)penta-1,3-dienyl)-2-methyl-2,3,4,5-tetrahydro-1H-pyrido[4,3-b]indole]	55%	99%		102%			
C/C(=C\n1c2c(c3ccccc31)CN(C)CC2)c1ccc(F)cc1 [Compound 205, (E)-5-(2-(4-fluorophenyl)prop-1-enyl)-2-methyl-2,3,4,5-tetrahydro-1H-pyrido[4,3-b]indole]	31%	99%	96%	100%	39%		
CN1CCc2c(c3cc(Cl)ccc3n2/C=C(/c2ccc(F)cc2)C2CCC2)C1 [Compound 206, (E)-8-chloro-5-(2-cyclobutyl-2-(4-fluorophenyl)vinyl)-2-methyl-2,3,4,5-tetrahydro-1H-pyrido[4,3-b]indole]	76%	96%		98%			
CNC(=O)C/C(=C\n1c2c(c3cc(C)ccc31)CN(C)CC2)c1ccc(F)cc1 [Compound 207, (E)-4-(2,8-dimethyl-3,4-dihydro-1H-pyrido[4,3-b]indol-5(2H)-yl)-3-(4-fluorophenyl)-N-methylbut-3-enamide]	15%	86%		97%			
CCCC/C(=C\n1c2c(c3cc(Cl)ccc31)CN(C)CC2)c1ccc(F)cc1 [Compound 208, (E)-8-chloro-5-(2-(4-fluorophenyl)hex-1-enyl)-2-methyl-2,3,4,5-tetrahydro-1H-pyrido[4,3-b]indole]	64%	99%		102%			
Cc1ccc2c(c1)c1c(n2/C=C(\CC(=O)O)c2ccc(F)cc2)CCN(C)C1 [Compound 209, (E)-4-(2,8-dimethyl-3,4-dihydro-1H-pyrido[4,3-b]indol-5(2H)-yl)-3-(4-fluorophenyl)but-3-enoic acid]	9%	30%		95%			
C/C(=C\n1c2c(c3cc(Cl)ccc31)CN(C)CC2)c1ccc(Cl)cc1Cl [Compound 210, (E)-8-chloro-5-(2-(2,4-dichlorophenyl)prop-1-enyl)-2-methyl-2,3,4,5-tetrahydro-1H-pyrido[4,3-b]indole]					53%	79%	99%
C/C(=C\n1c2c(c3cc(C)ccc31)CN(C)CC2)c1ccc(Cl)cc1 [Compound 211, (E)-5-(2-(4-chlorophenyl)prop-1-enyl)-2,8-dimethyl-2,3,4,5-tetrahydro-1H-pyrido[4,3-b]indole]	53%	97%	98%	107%	54%		
C/C(=C/n1c2c(c3cc(Cl)ccc31)CN(C)CC2)c1ccccc1F [Compound 212, (Z)-8-chloro-5-(2-(2-fluorophenyl)prop-1-enyl)-2-methyl-2,3,4,5-tetrahydro-1H-pyrido[4,3-b]indole]	70%	88%		104%			
C/C(=C\n1c2c(c3cc(Cl)ccc31)CN(C)CC2)c1ccccc1F [Compound 213, (E)-8-chloro-5-(2-(2-fluorophenyl)prop-1-enyl)-2-methyl-2,3,4,5-tetrahydro-1H-pyrido[4,3-b]indole]	69%	88%		102%			
CN1CCc2c(c3cc(Cl)ccc3n2C2=C(c3cccnc3)CCCC2)C1 [Compound No. 166, 8-chloro-2-methyl-5-(2-(pyridin-3-yl)cyclohex-1-enyl)-2,3,4,5-tetrahydro-1H-pyrido[4,3-b]indole]	14%	44%		46%			
Cc1ccc2c(c1)c1c(n2CC(O)(c2ccccc2)c2ccc(F)cc2)CCN(C)C1 (centres unmarked) [Compound No. 176, 2-(2,8-dimethyl-3,4-dihydro-1H-pyrido[4,3-b]indol-5(2H)-yl)-1-(4-fluorophenyl)-1-phenylethanol]	21%	94%		99%			
CCOC(=O)/C=C(/Cn1c2c(c3cc(C)ccc31)CN(C)CC2)c1ccccc1 [Compound No. 347, (E)-ethyl 4-(2,8-dimethyl-3,4-dihydro-1H-pyrido[4,3-b]indol-5(2H)-yl)-3-phenylbut-2-enoate]	42%	96%		104%	56%		

Reference: US8906925B2, “Pyrido[4,3-B]indoles containing rigid moieties” (Medivation Technologies, Inc., priority 2008, dated 2014)
